biological target: FKBP-12 peptidyl-prolyl isomerase (rotamase) (Homo sapiens, UniProt P62942); test: Ki test procedure: inhibition of FKBP peptidyl-prolyl isomerase (rotamase) activity, chymotrypsin-coupled assay; type: biochemical; conditions: apparent Ki, substrate N-succinyl-Ala-Ala-Pro-Phe-p-nitroanilide
Description: The binding to FBKP12 and inhibition of the peptidyl-prolyl isomerase (rotamase) activity of the compounds used in the inventive methods and pharmaceutical compositions can be evaluated by known methods described in the literature (Harding et al., Nature, 1989, 341:758-760; Holt et al. J. Am. Chem. Soc., 115:9923-9938). These values are obtained as apparent Ki's and are presented for representative compounds in TABLE III.
The cis-trans isomerization of an alanine-proline bond in a model substrate, N-succinyl-Ala-Ala-Pro-Phe-p-nitroanilide, is monitored spectrophotometrically in a chymotrypsin-coupled assay, which releases para-nitroanilide from the trans form of the substrate. The inhibition of this reaction caused by the addition of different concentrations of inhibitor is determined, and the data is analyzed as a change in first-order rate constant as a function of inhibitor concentration to yield the apparent K1 values. […]
The absorbance at 390 nm versus time is monitored for 90 seconds using a spectrophotometer and the rate constants are determined from the absorbance versus time data files.

Sequence of FKBP-12 peptidyl-prolyl isomerase (rotamase) (P62942 whole entry): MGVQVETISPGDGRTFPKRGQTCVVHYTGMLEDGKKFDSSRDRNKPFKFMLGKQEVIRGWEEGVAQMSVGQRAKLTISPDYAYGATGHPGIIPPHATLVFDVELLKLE

SMILES | Ki
O=C1[C@@H]2CCCN2C(=O)N1c1cccc2ccccc12 [Compound 1, (7aS)-2-(1-Naphthyl)perhydropyrrolo[1,2-c]imidazole-1,3-dione] | > 10 µM
CCc1ccccc1N1C(=O)C2CCCN2C1=O (stereo not shown) [Compound 6, 2-(2-ethyl)phenyl-2,5,6,7,7a-pentahydro-2-azapyrrolizin-1,3-dione] | > 5 µM

system: dopaminergic neurons (MPTP lesioning); test: MPTP model of Parkinson's Disease in mice, concurrent dosing paradigm; type: in vivo; conditions: 10 mg/kg p.o. with MPTP (30 mg/kg i.p.) for 5 days plus 5 further days; male CD1 mice; anti-tyrosine hydroxylase immunostaining at 18 days
Method: MPTP lesioning of dopaminergic neurons in mice was used as an animal model of Parkinson's Disease. Four week old male CD1 white mice were dosed i.p. with 30 mg/kg of MPTP for 5 days. Inventive compounds (4 mg/kg), or vehicle, were administered s.c. along with the MPTP for 5 days, as well as for an additional 5 days following cessation of MPTP treatment (Table IV). Inventive compounds (10 mg/kg), or vehicle, were also administered p.o. along with the MPTP for 5 days, as well as for an additional 5 days following cessation of MPTP treatment (Table V). At 18 days following MPTP treatment, the animals were sacrificed and the striata were dissected and homogenized. Immunostaining was performed on saggital and coronal brain sections using anti-tyrosine hydoxylase Ig to quantitate survival and recovery of dopaminergic neurons. In animals treated with MPTP and vehicle, a substantial loss of functional dopaminergic terminals was observed as compared to non-lesioned animals. In another protocol, test compounds were administered only subsequent to MPTP-induced lesioning. Thus, after animals were treated with MPTP for 5 days, an additional 3 days passed before beginning oral drug treatment on day 8. Animals were treated with inventive compounds (0.4 mg/kg), administered orally, once a day for 5 days total. On day 18, the animals were sacrificed and analyzed as described above. Tables IV and V present the percent recovery of dopaminergic neurons in the first (concurrent dosing) paradigms in animals receiving hydantoin derivative compounds.
Tables IV and V, below, show the remarkable neuroregenerative effects of the inventive hydantoin derivative compounds illustrating the neurotrophic capability of these compounds as a class showing that lesioned animals receiving the hydantoin derivative compounds provide a remarkable recovery of TH-stained dopaminergic neurons.

SMILES | % Recovery of dopaminergic neurons
O=C1[C@@H]2CCCN2C(=O)N1c1ccccc1-c1ccccc1 [Compound 2, (7aS)-2-(2′-Phenyl)phenylperhydropyrrolo[1,2-c]imidazole-1,3-dione] | 38.40%

same assay, conditions: Mus musculus, Neuron, po, 432 h; 10 mg/kg p.o. with MPTP (30 mg/kg i.p.) for 5 days plus 5 further days; male CD1 mice; anti-tyrosine hydroxylase immunostaining at 18 days

SMILES | % recovery of dopaminergic neurons at 10 mg/kg
O=C1C2CCCCN2C(=S)N1Cc1ccccc1 (stereo not shown) [Compound 39, 2-benzyl-3-thioxo-2,5,6,7,8,8a-hexahydro-2-azaindolizin-1-one] | 11.2%
O=C1C2CCCCN2C(=S)N1CCCc1ccccc1 (stereo not shown) [Compound 43, 2-(3-phenylpropyl)-3-thioxo-2,5,6,7,8,8a-hexahydro-2-azaindolizin-1-one] | 40.1%
CCCCCCCCN1C(=O)C2CCCCN2C1=O (stereo not shown) [Compound 42, 2-Octyl-2,5,6,7,8,8a-hexahydro-2-azaindolizine-1,3-dione] | 17.4%
CCCCN1C(=O)C2CCCCN2C1=O (stereo not shown) [Compound 74, 2-butyl-2,5,6,7,8,8a-hexahydro-2-azaindolizine-1,3-dione] | 46.4%
CCCCCCCN1C(=O)C2CCCCN2C1=O (stereo not shown) [Compound 41, 2-Heptyl-2,5,6,7,8,8a-hexahydro-2-azaindolizine-1,3-dione] | 8.8%
O=C1C2CCCN2C(=S)N1CCc1ccccc1 (stereo not shown) [Compound 8, 2-(2-phenylethyl)-3-thioxo-2,5,6,7,7a-pentahydro-2-azapyrrolizin-1-one] | 42.5%
O=C1C2CCCCN2C(=S)N1CCc1ccccc1 (stereo not shown) [Compound 40, 2-(2-phenylethyl)-3-thioxo-2,5,6,7,8,8a-hexahydro-2-azaindolizin-1-one] | 11%
O=C1C2CCCN2C(=S)N1Cc1ccccc1 (stereo not shown) [Compound 4, 2-benzyl-3-thioxo-2,5,6,7,7a-pentahydro-2-azapyrrolizin-1-one] | 49.3%
O=C1C2CCCCN2C(=O)N1Cc1ccccc1 (stereo not shown) [Compound 38, 2-Benzyl-2,5,6,7,8,8a-hexahydro-2-azaindolizine-1,3-dione] | 31.4%
O=C1C2CCCN2C(=S)N1CCCc1ccccc1 (stereo not shown) [Compound 7, 2-(3-phenylpropyl)-3-thioxo-2,5,6,7,7a-pentahydro-2-azapyrrolizin-1-one] | 37.5%
O=C1C2CCCCN2C(=O)N1c1ccccc1 (stereo not shown) [Compound 72, 2-phenyl-2,5,6,7,8,8a-hexahydro-2-azaindolizine-1,3-dione] | 37.2%
O=C1[C@@H]2CCCN2C(=O)N1c1ccc(C(F)(F)F)cc1 [Compound 3, (7aS)-2-(4-(Trifluoromethyl)phenyl)perhydropyrrolo[1,2-c]imidazole-1,3-dione] | 78.8%

same assay, conditions: Mus musculus, Neuron, sc, 432 h; 4 mg/kg s.c. with MPTP (30 mg/kg i.p.) for 5 days plus 5 further days; male CD1 mice; anti-tyrosine hydroxylase immunostaining at 18 days

SMILES | % recovery of dopaminergic neurons at 4 mg/kg
O=C1[C@@H]2CCCN2C(=O)N1c1cccc2ccccc12 [Compound 1, (7aS)-2-(1-Naphthyl)perhydropyrrolo[1,2-c]imidazole-1,3-dione] | 32.2%

Source: US6974823B2, “Hydantoin derivative compounds, pharmaceutical compositions, and methods of using same” (GPI NIL Holdindgs, Inc., priority 1999, dated 2005)
